In patent US20260014092A1, “EXTRACELLULAR VESICLES FROM MICROALGAE, THEIR USE FOR VACCINES AND FOR IMMUNOMODULATION” (AGS THERAPEUTICS SAS, priority 2023, published 2026):
Where “and” joins values, the source holds several entries; their conditions need not be identical. Equal entries are not always repeated. In the oligonucleotide strings, read from the 5' end, every base follows the letter of its sugar. An asterisk marks phosphorothioate; unmarked linkages are phosphodiester. Other units and linkages are bracketed, terminal groups are in braces. A string of capitals states the bases alone. d = 2'-deoxy (DNA)

Columns and labels:
[1] = cited from earlier work
[2] = test system: DSS-induced acute experimental colitis; test: DSS-induced acute colitis (IBD model): Disease Activity Index (DAI); type: in vivo, C57BL/6 female mice; set-up: scale not given here; conditions: i.r.
Method: In mice, the disease can be induced by the treatment with Dextran Sodium Sulfate (DSS) to create a disease model for the evaluation of experimental therapies. Thus, the treatment of mice suffering from DSS-induced acute experimental colitis is a widely used animal model for the evaluation of therapies against the IBD disease. In our case, acute colitis was induced in mice by DSS 3% in drinking water for eight days. […] All handling of animals was conducted carefully to reduce stress to the minimum. All the experiments were performed in compliance with the guidelines of the French Ministry of Agriculture for experiments with laboratory animals.
Animals were randomized before treatment group's allocation based on body weight. The disease was induced by administration of DSS in drinking water (3%, w/v, MW: 40000, TdB Consultancy AB) in C57BL/6 female mice at 9 weeks of age. Mice were administered with test compounds either at D3 and D6 (M1, M3 and M5 intrarectal), or daily from D3 to D6 (M2 and M4, per os). Experimental groups were as follows: seven animals per group; a total of 49 mice.
Mice were euthanized at D8; samples were harvested to determine the extent of intestinal inflammation using various quantitative and semi quantitative methods including body weight evolution, clinical score (Disease Activity index; DAI, Table 13, below), large intestine measurement, cytokine analysis in colon and/or ileum tissue (TNFα, TGFβ, IFNα, IFNγ, IL-6 and IL-17A) and intestinal and colon histopathology for inflammation analysis, as follows and as summarized in Table 14, below.
In-Life Samples (all groups) • Bodyweight (daily) • Disease Activity Index (DAI) (diarrhea and blood in stool)
The life samples were recovered every day: i. body weight, ii. diarrhea, and iii. blood in stool and used to determine the disease activity index (DAI). The results are summarized in Table 33, for each animal in each group for seven consecutive days.

## CCCCCCCCCCCCCCCCCCCCCC[N+]1=C(/C=C/C=C2/N(CCCCCCCCCCCCCC)c3ccccc3C2(C)C)C(C)(C)c2ccccc21.[I-] [PKH26]
[1]
  in vivo half-life: over 100 days

## ODN 1585 (DNA dG*dG*dGdGdTdCdAdAdCdGdTdTdGdAdG*dG*dG*dG*dG*dG) [ODNA]
[2]; D 0, group mean, D 3 and D 6, 50 μg/mouse
  Cumulative score (DAI), Mean: 0.00
[2]; D 0, individual mice, D 3 and D 6, 50 μg/mouse
  Cumulative score (DAI): 0
[2]; D 1, group mean, D 3 and D 6, 50 μg/mouse
  Cumulative score (DAI), Mean: 0.14
[2]; D 1, individual mice, D 3 and D 6, 50 μg/mouse
  Cumulative score (DAI): 0 (6×) and 1
[2]; D 2, group mean, D 3 and D 6, 50 μg/mouse
  Cumulative score (DAI), Mean: 0.14
[2]; D 2, individual mice, D 3 and D 6, 50 μg/mouse
  Cumulative score (DAI): 0 (6×) and 1
[2]; D 3, group mean, D 3 and D 6, 50 μg/mouse
  Cumulative score (DAI), Mean: 0.14
[2]; D 3, individual mice, D 3 and D 6, 50 μg/mouse
  Cumulative score (DAI): 0 (6×) and 1
[2]; D 4, group mean, D 3 and D 6, 50 μg/mouse
  Cumulative score (DAI), Mean: 1.71
[2]; D 4, individual mice, D 3 and D 6, 50 μg/mouse
  Cumulative score (DAI): 2 and 5 and 3 and 1 (2×) and 0 (2×)
[2]; D 5, group mean, D 3 and D 6, 50 μg/mouse
  Cumulative score (DAI), Mean: 4.14
[2]; D 5, individual mice, D 3 and D 6, 50 μg/mouse
  Cumulative score (DAI): 2 and 8 and 4 (2×) and 3 (2×) and 5
[2]; D 6, group mean, D 3 and D 6, 50 μg/mouse
  Cumulative score (DAI), Mean: 6.14
[2]; D 6, individual mice, D 3 and D 6, 50 μg/mouse
  Cumulative score (DAI): 7 (4×) and 6 (2×) and 3
[2]; D 7, group mean, D 3 and D 6, 50 μg/mouse
  Cumulative score (DAI), Mean: 6.71
[2]; D 7, individual mice, D 3 and D 6, 50 μg/mouse
  Cumulative score (DAI): 8 (3×) and 7 (2×) and 6 and 3

## cobitolimob (DNA GGAACAGTTCGTCCATGGC; listed as DNA, chemistry not given here) [ODNX]
[2]; D 0, group mean, D 3 and D 6, 100 μg/mouse
  Cumulative score (DAI), Mean: 0.00
[2]; D 0, individual mice, D 3 and D 6, 100 μg/mouse
  Cumulative score (DAI): 0
[2]; D 1, group mean, D 3 and D 6, 100 μg/mouse
  Cumulative score (DAI), Mean: 0.00
[2]; D 1, individual mice, D 3 and D 6, 100 μg/mouse
  Cumulative score (DAI): 0
[2]; D 2, group mean, D 3 and D 6, 100 μg/mouse
  Cumulative score (DAI), Mean: 0.14
[2]; D 2, individual mice, D 3 and D 6, 100 μg/mouse
  Cumulative score (DAI): 0 (6×) and 1
[2]; D 3, group mean, D 3 and D 6, 100 μg/mouse
  Cumulative score (DAI), Mean: 0.57
[2]; D 3, individual mice, D 3 and D 6, 100 μg/mouse
  Cumulative score (DAI): 0 (5×) and 3 and 1
[2]; D 4, group mean, D 3 and D 6, 100 μg/mouse
  Cumulative score (DAI), Mean: 2.43
[2]; D 4, individual mice, D 3 and D 6, 100 μg/mouse
  Cumulative score (DAI): 5 and 3 (2×) and 0 (2×) and 2 and 4
[2]; D 5, group mean, D 3 and D 6, 100 μg/mouse
  Cumulative score (DAI), Mean: 4.14
[2]; D 5, individual mice, D 3 and D 6, 100 μg/mouse
  Cumulative score (DAI): 4 (3×) and 5 (2×) and 1 and 6
[2]; D 6, group mean, D 3 and D 6, 100 μg/mouse
  Cumulative score (DAI), Mean: 5.71
[2]; D 6, individual mice, D 3 and D 6, 100 μg/mouse
  Cumulative score (DAI): 7 and 6 and 4 and 5 (2×) and 3 and 10
[2]; D 7, group mean, D 3 and D 6, 100 μg/mouse
  Cumulative score (DAI), Mean: 7.43
[2]; D 7, individual mice, D 3 and D 6, 100 μg/mouse
  Cumulative score (DAI): 10 (2×) and 7 and 5 and 6 (2×) and 8
